ChEMBL document CHEMBL1201862, “PubChem BioAssay data set” (2004)
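Step 1: Grow cells in 96-well plates. Step 2: Expose to compound for 48 hours at 5 concentrations. Step 3: Interpolate endpoints linearly; if unreached, use highest concentration. GI50 is the concentration that inhibits growth by half.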 Calls of active or inactive are those of the source. No stated cut-off is given here; in the data, active = GI50 up to about 1.1 µM and inactive = higher. Where a SMILES comes first, the peptide text is derived from it. The star is where a group is joined. Cbz = O=C(OCc1ccccc1)*

Experiments:
Experiment in all cases: NCI anticancer screen, dose series, 48 h
A549 = system: A549
BT-549 = system: BT-549
HCC 2998 = system: HCC 2998
HOP-62 = system: HOP-62
HOP-92 = system: HOP-92
KM12 = system: KM12
M14 = system: M14
MDA-N = system: MDA-N
Malme-3M = system: Malme-3M
NCI-H460 = system: NCI-H460
OVCAR-3 = system: OVCAR-3
OVCAR-5 = system: OVCAR-5
OVCAR-8 = system: OVCAR-8
SF-268 = system: SF-268
SK-MEL-28 = system: SK-MEL-28
SK-MEL-5 = system: SK-MEL-5
T47D = system: T47D
UACC-257 = system: UACC-257
UACC-62 = system: UACC-62
IGROV-1 = system: IGROV-1

Measured: GI50

Clc1ccccc1-c1nn2c(CCCCCCCCc3nnc4sc(-c5ccccc5Cl)nn34)nnc2s1
inactive: A549 > 100 µM | BT-549 > 100 µM | HCC 2998 > 100 µM | HOP-62 > 100 µM | HOP-92 > 100 µM | KM12 87.3 µM | M14 > 100 µM | MDA-N > 100 µM | Malme-3M > 100 µM | NCI-H460 > 100 µM | OVCAR-3 > 100 µM | OVCAR-5 > 100 µM | OVCAR-8 > 100 µM | SF-268 > 100 µM | SK-MEL-28 > 100 µM | SK-MEL-5 63.1 µM | T47D > 100 µM | UACC-257 > 100 µM | UACC-62 > 100 µM

O=C1C(Cl)C2(CC(/C=C/c3ccccc3Cl)=NN2c2cccc(S(=O)(=O)O)c2)N1c1nc2ccccc2s1 (configuration not stated)
inactive: A549 72.1 µM | BT-549 > 100 µM | HCC 2998 85.9 µM | HOP-92 36.6 µM | IGROV-1 26.9 µM | KM12 14.7 µM | M14 72.6 µM | MDA-N 46 µM | Malme-3M 27 µM | NCI-H460 63.5 µM | OVCAR-5 > 100 µM | OVCAR-8 26.5 µM | SF-268 66.4 µM | SK-MEL-28 > 100 µM | SK-MEL-5 21.4 µM | T47D 11.3 µM | UACC-257 66.8 µM | UACC-62 18.9 µM

CC(C)(CO)CNc1cc(Cl)nc(N)n1
inactive: A549 > 100 µM | BT-549 > 100 µM | HCC 2998 > 100 µM | HOP-62 > 100 µM | HOP-92 > 100 µM | IGROV-1 > 100 µM | KM12 > 100 µM | MDA-N > 100 µM | Malme-3M > 100 µM | NCI-H460 > 100 µM | OVCAR-3 > 100 µM | OVCAR-5 > 100 µM | OVCAR-8 > 100 µM | SF-268 > 100 µM | SK-MEL-28 > 100 µM | SK-MEL-5 > 100 µM | T47D 43.2 µM | UACC-257 > 100 µM | UACC-62 > 100 µM

Cc1ccc(O)c(C(c2ccc(C(c3cc(C)ccc3O)c3cc(C)ccc3O)cc2)c2cc(C)ccc2O)c1
inactive: A549 1.67 µM | BT-549 2.01 µM | HCC 2998 1.8 µM | HOP-62 1.92 µM | HOP-92 2.32 µM | IGROV-1 1.67 µM | KM12 1.67 µM | M14 1.8 µM | MDA-N 1.52 µM | Malme-3M 1.88 µM | OVCAR-3 1.74 µM | OVCAR-5 1.84 µM | OVCAR-8 1.81 µM | SF-268 1.62 µM | SK-MEL-28 1.81 µM | SK-MEL-5 1.77 µM | T47D 1.75 µM | UACC-257 1.85 µM | UACC-62 1.71 µM

CC(C)(C)NC(=O)/C(=C\Sc1ccccc1)c1ccccc1
inactive: A549 > 100 µM | BT-549 > 30.3 µM | HCC 2998 > 100 µM | HOP-62 > 100 µM | HOP-92 2.54 µM | IGROV-1 > 100 µM | KM12 > 100 µM | M14 > 100 µM | MDA-N 71.1 µM | Malme-3M > 100 µM | NCI-H460 > 100 µM | OVCAR-3 > 100 µM | OVCAR-5 > 100 µM | OVCAR-8 > 60 µM | SK-MEL-28 > 100 µM | SK-MEL-5 52.5 µM | T47D 56.1 µM | UACC-257 > 100 µM | UACC-62 > 100 µM

COC(=O)C(CC(C)C)NC(=O)C(CCCNC(=N)N)NC(=O)OCc1ccccc1 (stereo not drawn) (Cbz-Arg-Leu-OMe; configuration not given here)
inactive: A549 > 100 µM | BT-549 > 100 µM | HCC 2998 > 100 µM | HOP-62 > 100 µM | HOP-92 > 100 µM | IGROV-1 > 100 µM | KM12 > 100 µM | M14 > 100 µM | MDA-N > 100 µM | Malme-3M > 100 µM | NCI-H460 > 100 µM | OVCAR-3 > 100 µM | OVCAR-5 > 100 µM | OVCAR-8 > 100 µM | SF-268 > 100 µM | SK-MEL-28 > 100 µM | SK-MEL-5 > 100 µM | T47D > 100 µM | UACC-62 > 100 µM

O=c1cc(-c2ccc(O)cc2)oc2cc(O[C@@H]3O[C@H](CO)[C@@H](O)[C@H](O)[C@H]3O)cc(O)c12 [APIGETRIN]
inactive: A549 51.3 µM | BT-549 24.4 µM | HCC 2998 36.1 µM | HOP-62 > 100 µM | HOP-92 83.9 µM | IGROV-1 57.9 µM | KM12 13.9 µM | M14 > 100 µM | MDA-N 46 µM | NCI-H460 34.2 µM | OVCAR-3 > 100 µM | OVCAR-5 > 100 µM | OVCAR-8 31.7 µM | SF-268 51.3 µM | SK-MEL-28 98.4 µM | SK-MEL-5 46 µM | T47D 81.7 µM | UACC-257 > 100 µM | UACC-62 43.3 µM
